US20240343729A1 (priority 2021, published 2024)

Columns and labels:
Human PDE10A2 [1] = target: T1, Human PDE10A2 (Homo sapiens (Human), UniProt Q9Y233); experiment: cell-based; settings: Forskolin 10 μM; read-out: cAMP HTRF Assay in HEK 293 rhPDE10A2 cell line (pIC50) (converted)
Description: Semi log compound dilutions starting at a final concentration of 10 μM were dispensed into a white 384 well plate, alongside DMSO and an Inhibited control using the Tecan D300e digital dispenser. HEK 293 cells overexpressing recombinant human PDE10A2 were seeded on top of the compounds at 2500 cells/well in a volume 5 μL/well. The plate was incubated at room temperature for 60 minutes. To induce endogenous cAMP, 5 μL/well of Forskolin at a final assay concentration of 10 μM was added to the plate. The plate was incubated at room temperature for a further 45 minutes. cAMP HTRF detection reagents were added, and the plate was incubated for 60 minutes at room temperature. […] Data was analysed using a 4-parameter fit.

Human PDE10A2 [2] = target: T1, Human PDE10A2; experiment: biochemical; format: biochemical; settings: human PDE10A2 0.25 nM, cGMP 3 μM
Description: Semi Log compound dilutions starting at a final concentration of 50 μM were dispensed into a black 384 well plate alongside, DMSO and an Inhibited control using the Echo Acoustic dispenser. […] Data was analysed using a 4-parameter fit.

T1 sequence (Q9Y233 267-1055): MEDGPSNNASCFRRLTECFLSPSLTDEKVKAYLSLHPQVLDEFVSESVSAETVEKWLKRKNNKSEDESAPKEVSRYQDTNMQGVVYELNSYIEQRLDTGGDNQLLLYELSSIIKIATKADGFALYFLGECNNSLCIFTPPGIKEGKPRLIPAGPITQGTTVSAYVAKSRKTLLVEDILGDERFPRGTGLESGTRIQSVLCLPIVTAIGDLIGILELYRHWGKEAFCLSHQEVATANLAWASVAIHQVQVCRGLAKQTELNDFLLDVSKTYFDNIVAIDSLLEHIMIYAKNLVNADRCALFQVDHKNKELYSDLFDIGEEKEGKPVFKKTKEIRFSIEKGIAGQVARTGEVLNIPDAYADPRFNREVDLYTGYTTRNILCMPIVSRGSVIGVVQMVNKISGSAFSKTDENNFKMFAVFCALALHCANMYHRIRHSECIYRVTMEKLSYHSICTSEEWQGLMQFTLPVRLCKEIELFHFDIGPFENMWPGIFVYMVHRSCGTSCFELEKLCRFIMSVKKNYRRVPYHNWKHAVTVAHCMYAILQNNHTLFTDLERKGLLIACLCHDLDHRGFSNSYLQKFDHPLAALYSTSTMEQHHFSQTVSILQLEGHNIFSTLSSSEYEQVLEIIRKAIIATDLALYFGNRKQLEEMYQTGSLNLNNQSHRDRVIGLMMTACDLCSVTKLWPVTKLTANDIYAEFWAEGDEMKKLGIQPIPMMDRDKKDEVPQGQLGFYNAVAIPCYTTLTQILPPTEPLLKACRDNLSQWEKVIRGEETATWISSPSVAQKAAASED

Compound	IC50 (Human PDE10A2 [1]) [nM]	PDE10A2 Phosphate Sensor Enzyme Assay (pIC50) (Human PDE10A2 [2])	IC50 (Human PDE10A2 [2]; read-out: PDE10A2 Phosphate Sensor Enzyme Assay (pIC50) (converted)) [nM]
Cn1cc(-c2ccccc2)nc1C#Cc1nc(N2CC3(COC3)C2)c2ncn(C)c2n1 [Example 1, 6-[9-Methyl-2-[2-(1-methyl-4-phenyl-imidazol-2-yl)ethynyl]purin-6-yl]-2-oxa-6-azaspiro[3.3]heptane]	1.17	9.26	
Cn1cc(-c2cccnc2)nc1C#Cc1nc(N2CC3(COC3)C2)c2ncn(C)c2n1 [Example 2, 6-[9-Methyl-2-[2-[1-methyl-4-(3-pyridyl)imidazol-2-yl]ethynyl]purin-6-yl]-2-oxa-6-azaspiro[3.3]heptane]	1.55	8.62	
Cn1cc(-c2ccccc2)nc1C#Cc1nc(N2CC3(COC3)C2)c2cnn(C)c2n1 [Example 3, 6-[1-Methyl-6-[2-(1-methyl-4-phenyl-imidazol-2-yl)ethynyl]pyrazolo[3,4-d]pyrimidin-4-yl]-2-oxa-6-azaspiro[3.3]heptane]	0.275	9.99	
Cn1cnc2c(N3CC4(COC4)C3)nc(C#Cc3nc(-c4ccccc4)cn3CC3CCOCC3)nc21 [Example 4, 6-[9-Methyl-2-[2-[4-phenyl-1-(tetrahydropyran-4-ylmethyl)imidazol-2-yl]ethynyl]purin-6-yl]-2-oxa-6-azaspiro[3.3]heptane]	6.31	9.00	
Cn1cnc2c(N3CC4(COC4)C3)nc(C#Cc3nc(-c4ccccc4)cn3CCN3CCOCC3)nc21 [Example 5, 6-[9-Methyl-2-[2-[1-(2-morpholinoethyl)-4-phenyl-imidazol-2-yl]ethynyl]purin-6-yl]-2-oxa-6-azaspiro[3.3]heptane]	0.427	9.37	
Cn1cc(-c2ccccc2)nc1C#Cc1nc(N2CC3(COC3)C2)c2cnn(C3CCOCC3)c2n1 [Example 6, 6-[6-[2-(1-Methyl-4-phenyl-imidazol-2-yl)ethynyl]-1-tetrahydropyran-4-yl-pyrazolo[3,4-d]pyrimidin-4-yl]-2-oxa-6-azaspiro[3.3]heptane]	14.8	9.20	
Cn1cnc2c(N3CC4(COC4)C3)nc(C#Cc3nc(-c4ccccc4)c[nH]3)nc21 [Example 7, 6-[9-Methyl-2-[2-(4-phenyl-1H-imidazol-2-yl)ethynyl]purin-6-yl]-2-oxa-6-azaspiro[3.3]heptane]	2.95	9.22	
Cn1cc(-c2ccccc2)nc1C#Cc1nc(N2CC3(COC3)C2)c2cnn(CC3CNC3)c2n1 [Example 8, 6-[1-(Azetidin-3-ylmethyl)-6-[2-(1-methyl-4-phenyl-imidazol-2-yl)ethynyl]pyrazolo[3,4-d]pyrimidin-4-yl]-2-oxa-6-azaspiro[3.3]heptane]	5.75	8.45	
Cn1ncc2c(N3C[C@H]4COC[C@H]4C3)nc(C#Cc3nc(-c4ccccc4)c[nH]3)nc21 [Example 9, (3aS,6aR)-5-[1-methyl-6-[2-(4-phenyl-1H-imidazol-2-yl)ethynyl]pyrazolo[3,4-d]pyrimidin-4-yl]-1,3,3a,4,6,6a-hexahydrofuro[3,4-c]pyrrole]	0.603		0.0251
CN(C)CCOc1cccc(-c2c[nH]c(C#Cc3nc(N4C[C@H]5COC[C@H]5C4)c4cnn(C)c4n3)n2)c1 [Example 10, 2-[3-[2-[2-[4-[(3aS,6aR)-1,3,3a,4,6,6a-Hexahydrofuro[3,4-c]pyrrol-5-yl]-1-methyl-pyrazolo[3,4-d]pyrimidin-6-yl]ethynyl]-1H-imidazol-4-yl]phenoxy]-N,N-dimethyl-ethanamine]	0.661	10.4	
Cn1cc(-c2ccccc2)nc1C#Cc1nc2c(c(N3CCOCC3)n1)CCNC2 [Example 11, 4-[2-[2-(1-Methyl-4-phenyl-imidazol-2-yl)ethynyl]-5,6,7,8-tetrahydropyrido[3,4-d]pyrimidin-4-yl]morpholine]	1.86	9.80	
C[C@@H]1COCCN1c1nc(C#Cc2nc(-c3ccccc3)cn2C)nc2c1CCNC2 [Example 12, (3R)-3-Methyl-4-[2-[2-(1-methyl-4-phenyl-imidazol-2-yl)ethynyl]-5,6,7,8-tetrahydropyrido[3,4-d]pyrimidin-4-yl]morpholine]	0.437	10.40	
C[C@H]1COCCN1c1nc(C#Cc2nc(-c3ccccc3)cn2C)nc2c1CCNC2 [Example 13, (3S)-3-Methyl-4-[2-[2-(1-methyl-4-phenyl-imidazol-2-yl)ethynyl]-5,6,7,8-tetrahydropyrido[3,4-d]pyrimidin-4-yl]morpholine]	> 1000	8.92	
Cn1cc(-c2ccccc2)nc1C#Cc1nc2c(c(N3CCOCC3)n1)CCN(C1COC1)C2 [Example 14, 4-[2-[2-(1-Methyl-4-phenyl-imidazol-2-yl)ethynyl]-7-(oxetan-3-yl)-6,8-dihydro-5H-pyrido[3,4-d]pyrimidin-4-yl]morpholine]	1.78	9.35	
Cn1cc(-c2ccccc2)nc1C#Cc1nc2c(c(N3CCOCC3)n1)CCN(CC1CC1)C2 [Example 15, 4-[7-(Cyclopropylmethyl)-2-[2-(1-methyl-4-phenyl-imidazol-2-yl)ethynyl]-6,8-dihydro-5H-pyrido[3,4-d]pyrimidin-4-yl]morpholine]	562	8.72	
Cn1cc(-c2ccccc2)nc1C#Cc1nc(N2C[C@H]3COC[C@H]3C2)c2cnn(CC3CC3)c2n1 [Example 16, (3aR,6aS)-5-(1-(Cyclopropylmethyl)-6-((1-methyl-4-phenyl-1H-imidazol-2-yl)ethynyl)-1H-pyrazolo[3,4-d]pyrimidin-4-yl)hexahydro-1H-furo[3,4-c]pyrrole]	4.17	10.10	
CCn1ncc2c(N3C[C@H]4COC[C@H]4C3)nc(C#Cc3nc(-c4ccccc4)cn3C)nc21 [Example 17, (3aR,6aS)-5-(1-Ethyl-6-((1-methyl-4-phenyl-1H-imidazol-2-yl)ethynyl)-1H-pyrazolo[3,4-d]pyrimidin-4-yl)hexahydro-1H-furo[3,4-c]pyrrole]	0.331	10.50	
C[C@H]1COCCN1c1nc(C#Cc2nc(-c3ccccc3)cn2C)nc2c1ncn2C [Example 22, (S)-3-Methyl-4-(9-methyl-2-((1-methyl-4-phenyl-1H-imidazol-2-yl)ethynyl)-9H-purin-6-yl)morpholine]		9.22	
CC(C)n1ncc2c(N3C[C@H]4COC[C@H]4C3)nc(C#Cc3nc(-c4ccccc4)c[nH]3)nc21 [Example 25, (3aR,6aS)-5-(1-isoPropyl-6-((4-phenyl-1H-imidazol-2-yl)ethynyl)-1H-pyrazolo[3,4-d]pyrimidin-4-yl)hexahydro-1H-furo[3,4-c]pyrrole]		9.95	
C(#Cc1nc(-c2ccccc2)c[nH]1)c1nc(N2C[C@H]3COC[C@H]3C2)c2cnn(CC3CC3)c2n1 [Example 26, (3aR,6aS)-5-(1-(Cyclopropylmethyl)-6-((4-phenyl-1H-imidazol-2-yl)ethynyl)-1H-pyrazolo[3,4-d]pyrimidin-4-yl)hexahydro-1H-furo[3,4-c]pyrrole]		9.99	
